Laboratory results published in PubChem BioAssay (NCI).
Values joined by “and” are separate entries in the source; they are usually repeats but may differ in a detail not shown here. Equal entries are not always repeated.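 A five-concentration, 48-hour dose response in 96-well plates underlies each endpoint, interpolated linearly between surrounding concentrations. GI50 = concentration required for 50% inhibition of growth. TGI marks complete inhibition of growth.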

test system: K-562 leukemia; assay: growth of human tumour cells (NCI), 48 h

Row | Compound | TGI | GI50 [µM]
1 | COc1ccc(CNc2nc(NC3CCCCC3)nc(NC3CCCCC3)n2)cc1 | > 100 µM | –
2 | Cc1ccc(NC(=O)C(=O)C2C(=O)NC(=O)NC2=O)cc1C | > 100 µM | –
3 | S=C1NCCN1C(=S)Nc1ccccc1 | > 100 µM | –
4 | CCOC(=O)c1ccc(-c2ccc(Cl)cc2)[nH]1 | > 10 µM | –
5 | CC1CC(Nc2ccc(Br)cc2)N(C(=O)c2ccc(Br)cc2)O1 (configuration not stated) | > 10 µM | –
6 | COc1cc2c(cc1O)NC(=O)[C@@H]1CCCN1C2=O | > 100 µM | –
7 | COc1ccc2nc(-c3ccccc3)c(=O)[nH]c2c1 | > 100 µM | –
8 | O=c1[nH]c2nc3ccccc3c(=O)n2/c1=C/c1cccs1 | > 100 µM | –
9 | COc1ccc(/C=N/N=C(\N)NO)c(OC)c1C | > 100 µM | –
10 | CCCC(=O)[O-].CCCC(=O)[O-].NCCN.NCCN.[Co+3].[O-][Cl+3]([O-])([O-])[O-] | > 100 µM | –
11 | NCCCN(CCCN)CCc1cn(C(=O)c2ccccc2)cn1 | > 37.4 µM | –
12 | COc1cccc(-c2nc(-c3cnccn3)n(C/C=C/c3ccccc3)n2)c1 | > 10 µM | –
13 | C=C1CC[C@H]2C(=O)OC(c3ccoc3)C[C@]2(C)C/C=C\C=C/1C(=O)OC (some centres not stated) | > 25 µM | –
14 | CC(NC(=O)Cc1ccccc1)NC(=O)C(C)C(=O)NCc1ccccc1 (configuration not stated) | > 100 µM | –
15 | CC(=O)OCC1OC(n2c(C)c(N=Nc3ccc(Cl)cc3)c(C)c(C#N)c2=S)C(OC(C)=O)C(OC(C)=O)C1OC(C)=O (configuration not stated) | > 100 µM | –
16 | CCCCC1Cc2cc(O)ccc2-c2nc3cc(O)ccc3n21 (configuration not stated) (tested in a mixture with another compound) | 41.3 µM | –
17 | CC(NC(=O)c1c(O)[nH]c(=S)[nH]c1=O)c1ccc([N+](=O)[O-])cc1 (configuration not stated) | > 100 µM | –
18 | CC(=O)c1c(N=[N+]=[N-])c2cccc3c2n(c1=O)CCC3 | > 100 µM | –
19 | NC1(CCNC(=O)c2ccccc2)CCN(C(=O)c2ccccc2)CC1 | > 100 µM | –
20 | Cn1nnnc1SC(F)(F)c1nc2ccccc2o1 | > 100 µM | –

Row | Compound | TGI | GI50 [µM]
21 | COC(=O)N[C@H](C(=O)NC(OCc1ccccc1)C1COC(C)(C)O1)C(C)O[Si](C)(C)C(C)(C)C (some centres not stated) | > 100 µM | –
22 | COc1ccc(C2c3cc4c(cc3OC(N3CCOCC3)C2C)OCO4)cc1 (configuration not stated) | > 31.6 µM | –
23 | CC(=O)O[C@]12CCCCCC1C1(O)C(O)CCCCC12 (some centres not stated) | > 100 µM | –
24 | C/C=C\C(CC(=O)NCC(=O)c1c[nH]c2ccccc12)CC(=O)OC (configuration not stated) | > 100 µM | –
25 | CC(=O)c1ccc2c(c1)C(=O)c1sc(C(C)=O)cc1C2=O | 50 µM and > 100 µM | 0.264
26 | O=Cc1ccc(-c2ccc(-c3ccc(CO)s3)o2)s1 | > 22.2 µM | –
27 | CCOP(=O)(OCC)/C(C#N)=C/c1ccc(-c2cc(C(F)(F)F)cc(C(F)(F)F)c2)o1 | 13.8 µM | –
28 | CN1CCc2c(sc3[nH]c(=S)[nH]c(=S)c23)C1 | > 100 µM | –
29 | Cc1n[n+](Cc2ccccc2)c2sc(N)nn12 | > 100 µM | –
30 | CC(=O)Nc1c(C(=N)C#N)ncn1CCO | > 100 µM | –
31 | CN1CCN(/C(N)=C(\C#N)C(=O)Nc2ccc(Cl)cc2)CC1 | > 100 µM | –
32 | COc1cc2nc(-c3cccs3)nc(Cl)c2cc1OC | > 100 µM | –
33 | O=P1(Cc2ccccc2)N(Cc2ccccc2)[C@@H]2CCCC[C@H]2N1Cc1ccccc1 | 19.2 µM | –
34 | CN1CCCOC(c2ccc(Cl)cc2)O1 (configuration not stated) | > 100 µM | –
35 | O=C1/C(=C\c2cccc(Oc3ccccc3)c2)S(=O)(=O)C(c2ccccc2)N1c1cccc(Cl)c1 (configuration not stated) | > 100 µM | –
36 | CCOC(=O)CCC1(CCC(=O)OCC)CCCCCCCCC(CCC(=O)OCC)(CCC(=O)OCC)C(=O)C1=O | > 100 µM | –
37 | NCCCNCCCCN1CCOC1=O | > 100 µM | –
38 | O=C(Cn1c2ccc(Br)cc2c2nc3ccccc3nc21)NNC(=S)NC1CCCCC1 | 34.2 µM | –
39 | COCn1cnc2c(=O)nc(SC)n(-c3ccccc3)c21 | > 100 µM | –

test system: HOP-62 NSCLC; assay: growth of human tumour cells (NCI), 48 h

Row | Compound | TGI | GI50 [µM]
40 | COc1ccc(CNc2nc(NC3CCCCC3)nc(NC3CCCCC3)n2)cc1 | > 100 µM | –
41 | Cc1ccc(NC(=O)C(=O)C2C(=O)NC(=O)NC2=O)cc1C | > 100 µM | –
42 | S=C1NCCN1C(=S)Nc1ccccc1 | > 100 µM | –
43 | CC1CC(Nc2ccc(Br)cc2)N(C(=O)c2ccc(Br)cc2)O1 (configuration not stated) | > 10 µM | –
44 | COc1cc2c(cc1O)NC(=O)[C@@H]1CCCN1C2=O | > 100 µM | –
45 | COc1ccc2nc(-c3ccccc3)c(=O)[nH]c2c1 | > 100 µM | –
46 | O=c1[nH]c2nc3ccccc3c(=O)n2/c1=C/c1cccs1 | > 100 µM | –
47 | Cc1cc(C)nc(NC(P(=O)(O)O)P(=O)(O)O)n1 | > 100 µM | –
48 | COc1ccc(/C=N/N=C(\N)NO)c(OC)c1C | 36.7 µM | –
49 | CCCC(=O)[O-].CCCC(=O)[O-].NCCN.NCCN.[Co+3].[O-][Cl+3]([O-])([O-])[O-] | > 100 µM | –
50 | COc1cc(Nc2nc3cc(C(F)(F)F)ccc3nc2C(=O)O)cc(OC)c1OC | > 100 µM | –
51 | NCCCN(CCCN)CCc1cn(C(=O)c2ccccc2)cn1 | 23.4 µM | –
52 | CC1(C)O[C@H]2OC(CO)C(N=[N+]=[N-])[C@H]2O1 (some centres not stated) | > 100 µM | –
53 | C=C1CC[C@H]2C(=O)OC(c3ccoc3)C[C@]2(C)C/C=C\C=C/1C(=O)OC (some centres not stated) | > 25 µM | –
54 | CC(=O)OCC1OC(n2c(C)c(N=Nc3ccc(Cl)cc3)c(C)c(C#N)c2=S)C(OC(C)=O)C(OC(C)=O)C1OC(C)=O (configuration not stated) | 51.7 µM | –
55 | CCCCC1Cc2cc(O)ccc2-c2nc3cc(O)ccc3n21 (configuration not stated) (tested in a mixture with another compound) | 30.2 µM | –
56 | CC(NC(=O)c1c(O)[nH]c(=S)[nH]c1=O)c1ccc([N+](=O)[O-])cc1 (configuration not stated) | > 100 µM | –
57 | CC(=O)c1c(N=[N+]=[N-])c2cccc3c2n(c1=O)CCC3 | 42.3 µM | –
58 | Cn1nnnc1SC(F)(F)c1nc2ccccc2o1 | > 100 µM | –
59 | COC(=O)N[C@H](C(=O)NC(OCc1ccccc1)C1COC(C)(C)O1)C(C)O[Si](C)(C)C(C)(C)C (some centres not stated) | > 100 µM | –

Row | Compound | TGI | GI50 [µM]
60 | COc1ccc(C2c3cc4c(cc3OC(N3CCOCC3)C2C)OCO4)cc1 (configuration not stated) | > 72.2 µM | –
61 | CC(=O)O[C@]12CCCCCC1C1(O)C(O)CCCCC12 (some centres not stated) | > 100 µM | –
62 | C/C=C\C(CC(=O)NCC(=O)c1c[nH]c2ccccc12)CC(=O)OC (configuration not stated) | > 100 µM | –
63 | CC(=O)c1ccc2c(c1)C(=O)c1sc(C(C)=O)cc1C2=O | 8.16 µM and 7.25 µM | 2.35
64 | O=Cc1ccc(-c2ccc(-c3ccc(CO)s3)o2)s1 | > 84.3 µM | –
65 | CCOP(=O)(OCC)/C(C#N)=C/c1ccc(-c2cc(C(F)(F)F)cc(C(F)(F)F)c2)o1 | 29.1 µM | –
66 | CN1CCc2c(sc3[nH]c(=S)[nH]c(=S)c23)C1 | > 100 µM | –
67 | Cc1n[n+](Cc2ccccc2)c2sc(N)nn12 | > 100 µM | –
68 | CCOC(=O)c1c(OCC)[nH]c(=O)c(C(c2cccs2)c2c(O)c(C(=O)OCC)c(OCC)[nH]c2=O)c1O | 35.8 µM | –
69 | CC(=O)Nc1c(C(=N)C#N)ncn1CCO | > 100 µM | –
70 | CN1CCN(/C(N)=C(\C#N)C(=O)Nc2ccc(Cl)cc2)CC1 | > 100 µM | –
71 | COc1cc2nc(-c3cccs3)nc(Cl)c2cc1OC | > 100 µM | –
72 | O=P1(Cc2ccccc2)N(Cc2ccccc2)[C@@H]2CCCC[C@H]2N1Cc1ccccc1 | 32.2 µM | –
73 | CN1CCCOC(c2ccc(Cl)cc2)O1 (configuration not stated) | > 100 µM | –
74 | O=C1/C(=C\c2cccc(Oc3ccccc3)c2)S(=O)(=O)C(c2ccccc2)N1c1cccc(Cl)c1 (configuration not stated) | > 100 µM | –
75 | CCOC(=O)CCC1(CCC(=O)OCC)CCCCCCCCC(CCC(=O)OCC)(CCC(=O)OCC)C(=O)C1=O | > 100 µM | –
76 | NCCCNCCCCN1CCOC1=O | > 100 µM | –
77 | O=C(Cn1c2ccc(Br)cc2c2nc3ccccc3nc21)NNC(=S)NC1CCCCC1 | 30.6 µM | –
78 | COCn1cnc2c(=O)nc(SC)n(-c3ccccc3)c21 | > 100 µM | –

test system: SR leukemia; assay: growth of human tumour cells (NCI), 48 h

Row | Compound | TGI | GI50 [µM]
79 | Cc1ccc(NC(=O)C(=O)C2C(=O)NC(=O)NC2=O)cc1C | > 100 µM | –
80 | S=C1NCCN1C(=S)Nc1ccccc1 | > 100 µM | –
81 | CCOC(=O)c1ccc(-c2ccc(Cl)cc2)[nH]1 | > 10 µM | –
82 | CC1CC(Nc2ccc(Br)cc2)N(C(=O)c2ccc(Br)cc2)O1 (configuration not stated) | > 10 µM | –
83 | COc1cc2c(cc1O)NC(=O)[C@@H]1CCCN1C2=O | > 100 µM | –
84 | COc1ccc2nc(-c3ccccc3)c(=O)[nH]c2c1 | > 100 µM | –
85 | O=c1[nH]c2nc3ccccc3c(=O)n2/c1=C/c1cccs1 | > 100 µM | –
86 | COc1ccc(/C=N/N=C(\N)NO)c(OC)c1C | > 100 µM | –
87 | NCCCN(CCCN)CCc1cn(C(=O)c2ccccc2)cn1 | 13.9 µM | –
88 | COc1cccc(-c2nc(-c3cnccn3)n(C/C=C/c3ccccc3)n2)c1 | > 10 µM | –
89 | CC1(C)O[C@H]2OC(CO)C(N=[N+]=[N-])[C@H]2O1 (some centres not stated) | > 100 µM | –
90 | CC(NC(=O)Cc1ccccc1)NC(=O)C(C)C(=O)NCc1ccccc1 (configuration not stated) | > 100 µM | –
91 | CC(=O)OCC1OC(n2c(C)c(N=Nc3ccc(Cl)cc3)c(C)c(C#N)c2=S)C(OC(C)=O)C(OC(C)=O)C1OC(C)=O (configuration not stated) | > 100 µM | –
92 | CCCCC1Cc2cc(O)ccc2-c2nc3cc(O)ccc3n21 (configuration not stated) (tested in a mixture with another compound) | 34 µM | –
93 | CC(=O)c1c(N=[N+]=[N-])c2cccc3c2n(c1=O)CCC3 | > 100 µM | –
94 | NC1(CCNC(=O)c2ccccc2)CCN(C(=O)c2ccccc2)CC1 | > 100 µM | –
95 | Cn1nnnc1SC(F)(F)c1nc2ccccc2o1 | > 100 µM | –
96 | COC(=O)N[C@H](C(=O)NC(OCc1ccccc1)C1COC(C)(C)O1)C(C)O[Si](C)(C)C(C)(C)C (some centres not stated) | > 100 µM | –
97 | COc1ccc(C2c3cc4c(cc3OC(N3CCOCC3)C2C)OCO4)cc1 (configuration not stated) | > 76.1 µM | –
98 | CC(=O)O[C@]12CCCCCC1C1(O)C(O)CCCCC12 (some centres not stated) | > 100 µM | –
99 | C/C=C\C(CC(=O)NCC(=O)c1c[nH]c2ccccc12)CC(=O)OC (configuration not stated) | > 100 µM | –
100 | CC(=O)c1ccc2c(c1)C(=O)c1sc(C(C)=O)cc1C2=O | 50 µM and > 100 µM | 0.0247
101 | O=Cc1ccc(-c2ccc(-c3ccc(CO)s3)o2)s1 | 2.74 µM | –
102 | CCOP(=O)(OCC)/C(C#N)=C/c1ccc(-c2cc(C(F)(F)F)cc(C(F)(F)F)c2)o1 | 26.8 µM | –
103 | CN1CCc2c(sc3[nH]c(=S)[nH]c(=S)c23)C1 | > 100 µM | –
104 | CN1CCN(/C(N)=C(\C#N)C(=O)Nc2ccc(Cl)cc2)CC1 | 95.3 µM | –
